PubChem BioAssay AID2060497 (Molecular Pharmacology Branch, DTP, NCI, 2025)
Where “and” joins values, the source holds several entries; their conditions need not be identical. Identical values can stand only once.

System: 317291-083-R-J1-PDC complex spheroids, viability
Test: Anticancer human tumor 317291-083-R-J1-PDC patient-derived soft tissue sarcoma cell line growth inhibition [GQUAD]
Details: for viability, T/C: stronger effect = lower value
Summary of the method: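 Multi-cell-type spheroids of tumor cells with HUVEC and mesenchymal stem cells, treated with drug combinations. Concentrations descend in half-log steps from near clinical Cmax, or from 10 microM where Cmax is unknown; viability read-out.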

[1] = curve of first compound, second compound 0.0316 µM
[2] = curve of first compound, second compound 0.1 µM
[3] = curve of first compound, second compound 0.316 µM
[4] = curve of first compound, second compound 1 µM
[5] = curve of first compound, second compound 3.16 µM
[6] = curve of first compound, second compound 10 µM
[7] = second compound 0.0316 µM, first compound 0.0316 µM
[8] = second compound 0.0316 µM, first compound 0.1 µM
[9] = second compound 0.0316 µM, first compound 0.316 µM
[10] = second compound 0.0316 µM, first compound 1 µM
[11] = second compound 0.0316 µM, first compound 3.16 µM
[12] = second compound 0.0316 µM, first compound 10 µM
[13] = second compound 0.1 µM, first compound 0.0316 µM
[14] = second compound 0.1 µM, first compound 0.1 µM
[15] = second compound 0.1 µM, first compound 0.316 µM
[16] = second compound 0.1 µM, first compound 1 µM
[17] = second compound 0.1 µM, first compound 3.16 µM
[18] = second compound 0.1 µM, first compound 10 µM
[19] = second compound 0.316 µM, first compound 0.0316 µM
[20] = second compound 0.316 µM, first compound 0.1 µM
[21] = second compound 0.316 µM, first compound 0.316 µM
[22] = second compound 0.316 µM, first compound 1 µM
[23] = second compound 0.316 µM, first compound 3.16 µM
[24] = second compound 0.316 µM, first compound 10 µM
[25] = second compound 1 µM, first compound 0.0316 µM
[26] = second compound 1 µM, first compound 0.1 µM
[27] = second compound 1 µM, first compound 0.316 µM
[28] = second compound 1 µM, first compound 1 µM
[29] = second compound 1 µM, first compound 3.16 µM
[30] = second compound 1 µM, first compound 10 µM
[31] = second compound 3.16 µM, first compound 0.0316 µM
[32] = second compound 3.16 µM, first compound 0.1 µM
[33] = second compound 3.16 µM, first compound 0.316 µM
[34] = second compound 3.16 µM, first compound 1 µM
[35] = second compound 3.16 µM, first compound 3.16 µM
[36] = second compound 3.16 µM, first compound 10 µM
[37] = second compound 10 µM, first compound 0.0316 µM
[38] = second compound 10 µM, first compound 0.1 µM
[39] = second compound 10 µM, first compound 0.316 µM
[40] = second compound 10 µM, first compound 1 µM
[41] = second compound 10 µM, first compound 3.16 µM
[42] = second compound 10 µM, first compound 10 µM
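Further: spheroids exposed to compounds for one week before readout.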
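Wherever viability, T/C is given: percent viability relative to DMSO vehicle wells taken as 100%.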

In the case of CC1COCCN1c1cc(C2(S(C)(=N)=O)CC2)nc(-c2ccnc3[nH]ccc23)n1 (stereo unspecified) + Cc1cnc(CNC(=O)c2c(=O)c3ccc(N4CCCN(C)CC4)nc3n3c2sc2ccccc23)cn1, the IC50 [1] is reported as 1280 nM, the IC50 [2] is reported as 493 nM and the IC50 [3] is reported as < 31.6 nM. The IC50 [4] was < 31.6 nM, the IC50 [5] was < 31.6 nM and the IC50 [6] was < 31.6 nM. It also gave a viability, T/C [7] of 97.2%, a viability, T/C [8] of 99.6% and a viability, T/C [9] of 69.2%. The viability, T/C [10] was 67.6%, the viability, T/C [11] was 19% and the viability, T/C [12] was 10.4%. The viability, T/C [13] was 66.2%, the viability, T/C [14] was 111% and the viability, T/C [15] was 64.6%. For the same molecule, the viability, T/C [16] was 34.4%, the viability, T/C [17] was 22.5% and the viability, T/C [18] was 23.2%. For the same molecule, the viability, T/C [19] was 44%, the viability, T/C [20] was 42.2% and the viability, T/C [21] was 42.8%. The viability, T/C [22] was 35%, the viability, T/C [23] was 12.2% and the viability, T/C [24] was 18.2%. It also gave a viability, T/C [25] of 34.8%, a viability, T/C [26] of 60.1% and a viability, T/C [27] of 32.2%. For the same molecule, the viability, T/C [28] was 20.8%, the viability, T/C [29] was 25.3% and the viability, T/C [30] was 14.8%. The viability, T/C [31] was 16.2%, the viability, T/C [32] was 22.4% and the viability, T/C [33] was 18%. It also gave a viability, T/C [34] of 26.7%, a viability, T/C [35] of 15.4% and a viability, T/C [36] of 14.6%. For the same molecule, the viability, T/C [37] was 39.2%, the viability, T/C [38] was 19.8% and the viability, T/C [39] was 46.7%. For the same molecule, the viability, T/C [40] was 9.84%, the viability, T/C [41] was 20.8% and the viability, T/C [42] was 9.87%.

COc1ncnc(C2CC2)c1-c1ncc2cnn(Cc3ccc(-c4nc(C(F)(F)F)cn4C(C)C)cc3)c2n1 + CN(C)c1ccc(Nc2c3ccc(NC(=O)CCN4CCCC4)cc3nc3cc(NC(=O)CCN4CCCC4)ccc23)cc1 was tested, and the IC50 [1] was > 10000 nM, the IC50 [2] was > 10000 nM and the IC50 [3] was < 31.6 nM. The IC50 [4] was < 31.6 nM, the IC50 [5] was < 31.6 nM and the IC50 [6] was < 31.6 nM. The viability, T/C [7] was 88.5%, the viability, T/C [8] was 77.1% and the viability, T/C [9] was 69%. The viability, T/C [10] was 70.3%, the viability, T/C [11] was 64.3% and the viability, T/C [12] was 59.9%. It also gave a viability, T/C [13] of 79.9%, a viability, T/C [14] of 61.4% and a viability, T/C [15] of 65.9%. It also gave a viability, T/C [16] of 61.4%, a viability, T/C [17] of 51.6% and a viability, T/C [18] of 60.2%. It also gave a viability, T/C [19] of 48.2%, a viability, T/C [20] of 44.2% and a viability, T/C [21] of 41.9%. For the same molecule, the viability, T/C [22] was 37.4%, the viability, T/C [23] was 37.4% and the viability, T/C [24] was 36.1%. For the same molecule, the viability, T/C [25] was 32.4%, the viability, T/C [26] was 50.2% and the viability, T/C [27] was 35.7%. For the same molecule, the viability, T/C [28] was 16.5%, the viability, T/C [29] was 26.6% and the viability, T/C [30] was 17.3%. For the same molecule, the viability, T/C [31] was 33.4%, the viability, T/C [32] was 2.38% and the viability, T/C [33] was 3.48%. It also gave a viability, T/C [34] of 1.13%, a viability, T/C [35] of 2.41% and a viability, T/C [36] of 1.37%. It also gave a viability, T/C [37] of 0.61%, a viability, T/C [38] of 0.24% and a viability, T/C [39] of 0.23%. For the same molecule, the viability, T/C [40] was 0.23%, the viability, T/C [41] was 0.28% and the viability, T/C [42] was 0.22%.

In the case of O=c1[nH]cc(F)c(=O)[nH]1, the viability, T/C (compound 0.0316 µM) is reported as 102% and 111% and 94.4%, the viability, T/C (compound 0.1 µM) is reported as 112% and 101% and 100% and the viability, T/C (compound 0.316 µM) is reported as 95.9% and 101% and 111%. The viability, T/C (compound 1 µM) was 59.7% and 96.8% and 66.8%, the viability, T/C (compound 3.16 µM) was 35% and 34% and 49.6% and the viability, T/C (compound 10 µM) was 36.3% and 23.9% and 38.4%. For the same molecule, the IC50 (curve of compound) was 1600 nM and 2360 nM and 2340 nM.
